Measured values reported in patent publication US8679514B2, “Fungicidal mixtures based on azolopyrimidinylamines” (BASF SE, priority 2005, dated 2014).

How the values were obtained:
Phytophthora infestans [1] = experiment: whole plant or invertebrate; type: in vivo; details: 144 h, read-out: Efficacy in % of the untreated control
Phytophthora infestans [2] = experiment: microbe, parasite or virus in culture; type: cell-based
Pyricularia oryzae = experiment: microbe, parasite or virus in culture; type: cell-based; details: for inhibition at 63 µg/mL / inhibition at 0.25 µg/mL / inhibition at 1 µg/mL / inhibition at 4 µg/mL / inhibition at 16 µg/mL: Pyricularia oryzae, read-out: Observed activity (%)
Botrytis cinerea = experiment: Activity against the gray mold pathogen Botrytis cinerea in the microtiter test; type: cell-based; details: single active compound; for inhibition at 0.25 µg/mL: Conc. 0.25 mg/l; for inhibition at […]: Conc. 0.063 mg/l; for inhibition at 1 µg/mL: Conc. 1 mg/l; for inhibition at 4 µg/mL: Conc. 4 mg/l
[3] = Phytophthora infestans, read-out: Observed activity (%)
[4] = Botrytis cinerea, read-out: Observed activity (%)

COCC(=O)N(c1c(C)cccc1C)C(C)C(=O)OC (racemic) [metalaxyl, methyl N-(methoxyacetyl)-N-(2,6-xylyl)-DL-alaninate, reference compound]
pest or weed control at 16 ppm (Phytophthora infestans [1]): 33%
pest or weed control at 63 ppm (Phytophthora infestans [1]): 56%
inhibition at 1 µg/mL (Phytophthora infestans [2]; [3]): 6%
inhibition at 4 µg/mL (Phytophthora infestans [2]; [3]): 9%
inhibition at 63 µg/mL (Pyricularia oryzae): 2%

Cc1nc2ncnn2c(N)c1-c1ccc(Cl)c(Cl)c1 [Compound I-9, 6-(3,4-dichlorophenyl)-5-methyl-[1,2,4]triazolo[1,5-a]pyrimidin-7-ylamine]
inhibition at 0.016 µg/mL (Phytophthora infestans [2]; [3]): 1%
inhibition at 0.25 µg/mL (Phytophthora infestans [2]; [3]): 7%
inhibition at […] (Phytophthora infestans [2]; [3]): 6%
inhibition at 0.25 µg/mL (Botrytis cinerea; [4]): 8%
inhibition at 0.25 µg/mL (Pyricularia oryzae): 7%
inhibition at 1 µg/mL (Pyricularia oryzae): 13%

Cc1nc2ncnn2c(N)c1-c1ccc(C(C)(C)C)cc1 [Compound I-18, 6-(4-tert-butylphenyl)-5-methyl-[1,2,4]triazolo[1,5-a]pyrimidin-7-ylamine]
pest or weed control at 16 ppm (Phytophthora infestans [1]): 11%
inhibition at 0.25 µg/mL (Phytophthora infestans [2]; [3]): 16%
inhibition at 1 µg/mL (Phytophthora infestans [2]; [3]): 45%
inhibition at […] (Phytophthora infestans [2]; [3]): 6%
inhibition at […] (Botrytis cinerea; [4]): 6%
inhibition at 1 µg/mL (Botrytis cinerea; [4]): 8%
inhibition at 16 µg/mL (Botrytis cinerea; Botrytis cinerea, Conc. 16 mg/l, read-out: Observed activity (%)): 11%
inhibition at 0.25 µg/mL (Pyricularia oryzae): 15%
inhibition at 1 µg/mL (Pyricularia oryzae): 15%
inhibition at 4 µg/mL (Pyricularia oryzae): 18%
inhibition at 16 µg/mL (Pyricularia oryzae): 29%

CCCCCCCCc1c(C)nc2ncnn2c1N [Compound I-25, 5-methyl-6-octyl-[1,2,4]triazolo[1,5-a]pyrimidin-7-ylamine]
pest or weed control at 16 ppm (Phytophthora infestans [1]): 0%
inhibition at 0.25 µg/mL (Phytophthora infestans [2]; [3]): 5%
inhibition at 1 µg/mL (Phytophthora infestans [2]; [3]): 13%
inhibition at […] (Phytophthora infestans [2]; [3]): 4%
inhibition at 0.25 µg/mL (Botrytis cinerea; [4]): 5%
inhibition at 1 µg/mL (Pyricularia oryzae): 24%

Cc1nc2ncnn2c(N)c1CCC(C)CC(C)(C)C (stereo not drawn) [Compound I-28, 5-methyl-6-(3,5,5-trimethylhexyl)-[1,2,4]triazolo[1,5-a]pyrimidin-7-ylamine]
pest or weed control at 63 ppm (Phytophthora infestans [1]): 44%
inhibition at 0.016 µg/mL (Phytophthora infestans [2]; [3]): 0%
inhibition at 0.25 µg/mL (Phytophthora infestans [2]; [3]): 14%
inhibition at 1 µg/mL (Phytophthora infestans [2]; [3]): 24%
inhibition at […] (Phytophthora infestans [2]; [3]): 0%
inhibition at 4 µg/mL (Botrytis cinerea; [4]): 0%
inhibition at 0.25 µg/mL (Pyricularia oryzae): 12%
inhibition at 1 µg/mL (Pyricularia oryzae): 13%

CCCCCCCCc1c(C(F)(F)F)nc2ncnn2c1N [Compound I-98, 6-octyl-5-trifluoromethyl-[1,2,4]triazolo[1,5-a]pyrimidin-7-ylamine]
inhibition at 0.25 µg/mL (Phytophthora infestans [2]; [3]): 6%
inhibition at 1 µg/mL (Phytophthora infestans [2]; [3]): 16%
inhibition at 4 µg/mL (Phytophthora infestans [2]; [3]): 22%
inhibition at […] (Phytophthora infestans [2]; [3]): 5%
inhibition at 0.25 µg/mL (Botrytis cinerea; [4]): 4%
inhibition at 1 µg/mL (Botrytis cinerea; [4]): 5%
inhibition at 0.25 µg/mL (Pyricularia oryzae): 0%
inhibition at 1 µg/mL (Pyricularia oryzae): 0%
inhibition at 4 µg/mL (Pyricularia oryzae): 15%
inhibition at 16 µg/mL (Pyricularia oryzae): 43%

CC(CCc1c(C(F)(F)F)nc2ncnn2c1N)CC(C)(C)C (stereo not drawn) [Compound I-101, 5-trifluoromethyl-6-(3,5,5-trimethylhexyl)-[1,2,4]triazolo[1,5-a]pyrimidin-7-ylamine]
inhibition at 0.25 µg/mL (Phytophthora infestans [2]; [3]): 3%
inhibition at 4 µg/mL (Phytophthora infestans [2]; [3]): 9%
inhibition at 1 µg/mL (Botrytis cinerea; [4]): 1%
inhibition at 1 µg/mL (Pyricularia oryzae): 15%
inhibition at 4 µg/mL (Pyricularia oryzae): 16%
inhibition at 16 µg/mL (Pyricularia oryzae): 25%

CCc1nc2ncnn2c(N)c1CCC(C)CC(C)(C)C (stereo not drawn) [Compound I-113, 5-ethyl-6-(3,5,5-trimethylhexyl)-[1,2,4]triazolo[1,5-a]pyrimidin-7-ylamine]
pest or weed control at 16 ppm (Phytophthora infestans [1]): 22%
inhibition at 0.25 µg/mL (Phytophthora infestans [2]; [3]): 3%
inhibition at 4 µg/mL (Phytophthora infestans [2]; [3]): 36%
inhibition at 4 µg/mL (Pyricularia oryzae): 7%

CCCCCCCCc1nc2ncnn2c(N)c1CC [Compound I-290, 6-ethyl-5-octyl-[1,2,4]triazolo[1,5-a]pyrimidin-7-ylamine]
inhibition at 0.25 µg/mL (Phytophthora infestans [2]; [3]): 0%
inhibition at 4 µg/mL (Phytophthora infestans [2]; [3]): 3%
inhibition at […] (Phytophthora infestans [2]; [3]): 0%
inhibition at 1 µg/mL (Botrytis cinerea; [4]): 4%

O=S(=O)([O-])[O-].[Cu+2] [CuSO4, reference compound]
Observed activity (%) (Botrytis cinerea; Conc. 63 mg/l): 0%
Observed activity (%) (Pyricularia oryzae): 0%

CC1CCN(c2c(-c3c(F)cc(F)cc3F)c(Cl)nc3ncnn23)CC1 [[D-8], 5-chloro-7-(4-methylpiperidin-1-yl)-6-(2,4,6-trifluorophenyl)-[1,2,4]triazolo[1,5-a]pyrimidine, reference compound]
inhibition at 1 µg/mL (Phytophthora infestans [2]; [3]): 43%

CO/C=C(/C(=O)OC)c1ccccc1Oc1cc(Oc2ccccc2C#N)ncn1 [azoxystrobin]
Observed activity (%) (Phytophthora infestans [2]): 21%

COC(=O)C(C)N(C(=O)Cc1ccccc1)c1c(C)cccc1C (stereo not drawn) [benalaxyl]
inhibition at 4 µg/mL (Phytophthora infestans [2]; [3]): 13%

O=C(Nc1ccccc1-c1ccc(Cl)cc1)c1cccnc1Cl [boscalid]
inhibition at 1 µg/mL (Phytophthora infestans [2]; [3]): 2%
inhibition at 4 µg/mL (Phytophthora infestans [2]; [3]): 17%
inhibition at 63 µg/mL (Pyricularia oryzae): 12%

O=C1C2CC=CCC2C(=O)N1SC(Cl)(Cl)Cl (stereo not drawn) [captan, 2-trichloromethylsulfanyl-3a,4,7,7a-tetrahydroisoindole-1,3-dione, reference compound]
inhibition at 1 µg/mL (Phytophthora infestans [2]; [3]): 12%
inhibition at 1 µg/mL (Pyricularia oryzae): 44%

COC(=O)Nc1nc2ccccc2[nH]1 [carbendazim]
inhibition at 0.25 µg/mL (Pyricularia oryzae): 20%

N#Cc1c(Cl)c(Cl)c(Cl)c(C#N)c1Cl [chlorothalonil]
inhibition at 1 µg/mL (Botrytis cinerea; [4]): 55%

Cc1ccc(-c2c(Cl)nc(C#N)n2S(=O)(=O)N(C)C)cc1 [cyazofamid, 4-chloro-2-cyano-N,N-dimethyl-5-(4-methylphenyl)-1H-imidazole-1-sulfon-amide, reference compound]
pest or weed control at 4 ppm (Phytophthora infestans [1]): 33%
inhibition at 4 µg/mL (Pyricularia oryzae): 23%

CC(C1CC1)C(O)(Cn1cncn1)c1ccc(Cl)cc1 (stereo not drawn) [cyproconazole]
inhibition at 4 µg/mL (Phytophthora infestans [2]; [3]): 9%
inhibition at 4 µg/mL (Pyricularia oryzae): 54%

Cc1cc(C2CC2)nc(Nc2ccccc2)n1 [cyprodinil]
inhibition at 4 µg/mL (Phytophthora infestans [2]; [3]): 10%

CC1COC(Cn2cncn2)(c2ccc(Oc3ccc(Cl)cc3)cc2Cl)O1 (stereo not drawn) [difenoconazole]
inhibition at 4 µg/mL (Phytophthora infestans [2]; [3]): 24%

CC1CN(C2CCCCCCCCCCC2)CC(C)O1 (stereo not drawn) [dodemorph]
inhibition at 16 µg/mL (Pyricularia oryzae): 72%

CO/C=C(/C(=O)OC)c1ccccc1CO/N=C(C)/C=C/c1ccc(Cl)cc1 [enestroburin]
Observed activity (%) (Phytophthora infestans [2]): 35%

CSC1=N[C@@](C)(c2ccccc2)C(=O)N1Nc1ccccc1 [fenamidone]
inhibition at […] (Phytophthora infestans [2]; [3]): 40%

O=[N+]([O-])c1cc(C(F)(F)F)c(Cl)c([N+](=O)[O-])c1Nc1ncc(C(F)(F)F)cc1Cl [fluazinam]
inhibition at 0.25 µg/mL (Phytophthora infestans [2]; [3]): 9%
inhibition at […] (Botrytis cinerea; [4]): 50%

CC(C)OC(=O)N[C@H](C(=O)N[C@H](C)c1nc2ccc(F)cc2s1)C(C)C [flubenthiavalicarb]
Observed activity (%) (Phytophthora infestans [2]): 68%

CO/N=C(/C1=NOCCO1)c1ccccc1Oc1ncnc(Oc2ccccc2Cl)c1F [fluoxastrobin]
inhibition at 0.025 µg/mL (Phytophthora infestans [2]; [3]): 2%
inhibition at […] (Phytophthora infestans [2]; [3]): 1%

O=c1c2cc(F)ccc2nc(-n2cncn2)n1-c1ccc(Cl)cc1Cl [fluquinconazole, 3-(2,4-dichlorophenyl)-6-fluoro-2-[1,2,4]-triazol-1-yl-3H-quinazolin-4-one, reference compound]
inhibition at 1 µg/mL (Phytophthora infestans [2]; [3]): 0%
inhibition at 4 µg/mL (Phytophthora infestans [2]; [3]): 0%
inhibition at […] (Botrytis cinerea; [4]): 22%
inhibition at 4 µg/mL (Pyricularia oryzae): 0%

C[Si](Cn1cncn1)(c1ccc(F)cc1)c1ccc(F)cc1 [flusilazole]
inhibition at 1 µg/mL (Phytophthora infestans [2]; [3]): 0%
inhibition at 4 µg/mL (Phytophthora infestans [2]; [3]): 11%
inhibition at 0.25 µg/mL (Botrytis cinerea; [4]): 43%

O=C1c2ccccc2C(=O)N1SC(Cl)(Cl)Cl [folpet]
inhibition at 1 µg/mL (Phytophthora infestans [2]; [3]): 6%
inhibition at 1 µg/mL (Botrytis cinerea; [4]): 2%

CC(C)NC(=O)N1CC(=O)N(c2cc(Cl)cc(Cl)c2)C1=O [iprodione, N-isopropyl-3-(3,5-dichlorophenyl)-2,4-dioxoimidazolidine-1-carboxamide, reference compound]
inhibition at 4 µg/mL (Pyricularia oryzae): 46%

COc1cc(C)c(C(=O)c2c(OC)ccc(Br)c2C)c(OC)c1OC [metrafenone, 3′-bromo-2,3,4,6′-tetramethoxy-2′,6-dimethylbenzophenone, reference compound]
inhibition at 4 µg/mL (Phytophthora infestans [2]; [3]): 2%
inhibition at 63 µg/mL (Pyricularia oryzae): 42%

Cc1cccc(C)c1N(C(=O)CCl)C1CCOC1=O (stereo not drawn) [ofurace]
inhibition at 4 µg/mL (Phytophthora infestans [2]; [3]): 0%
inhibition at 16 µg/mL (Phytophthora infestans [2]; [3]): 19%

COCC(=O)N(c1c(C)cccc1C)N1CCOC1=O [oxadixyl]
inhibition at 1 µg/mL (Phytophthora infestans [2]; [3]): 0%
inhibition at 4 µg/mL (Phytophthora infestans [2]; [3]): 2%
inhibition at 16 µg/mL (Phytophthora infestans [2]; [3]): 17%

CCCN(CCOc1c(Cl)cc(Cl)cc1Cl)C(=O)n1ccnc1 [prochloraz]
inhibition at 16 µg/mL (Phytophthora infestans [2]; [3]): 6%

CCCC1COC(Cn2cncn2)(c2ccc(Cl)cc2Cl)O1 (stereo not drawn) [propiconazole]
inhibition at 1 µg/mL (Phytophthora infestans [2]; [3]): 1%
inhibition at 4 µg/mL (Phytophthora infestans [2]; [3]): 11%
inhibition at 16 µg/mL (Phytophthora infestans [2]; [3]): 12%

OC(Cc1ccccc1Cl)(Cn1nc[nH]c1=S)C1(Cl)CC1 (stereo not drawn) [prothioconazole, 2-[2-(1-chlorocyclopropyl)-3-(2-chlorophenyl)-2-hydroxypropyl]-2,4-dihydro-[1,2,4]triazole-3-thione, reference compound]
inhibition at 4 µg/mL (Botrytis cinerea; [4]): 48%
inhibition at 4 µg/mL (Pyricularia oryzae): 11%

COC(=O)N(OC)c1ccccc1COc1ccn(-c2ccc(Cl)cc2)n1 [pyraclostrobin]
inhibition at 0.016 µg/mL (Phytophthora infestans [2]; [3]): 14%
inhibition at […] (Phytophthora infestans [2]; [3]): 59%

CC(C)(C)C(O)(CCc1ccc(Cl)cc1)Cn1cncn1 (stereo not drawn) [tebuconazole]
inhibition at 1 µg/mL (Phytophthora infestans [2]; [3]): 8%
inhibition at 4 µg/mL (Phytophthora infestans [2]; [3]): 10%
inhibition at 16 µg/mL (Phytophthora infestans [2]; [3]): 9%
inhibition at 0.25 µg/mL (Botrytis cinerea; [4]): 50%

COC(=O)NC(=S)Nc1ccccc1NC(=S)NC(=O)OC [thiophanate-methyl]
inhibition at 0.25 µg/mL (Botrytis cinerea; [4]): 12%

CON=C(C(=O)OC)c1ccccc1CON=C(C)c1cccc(C(F)(F)F)c1 [trifloxystrobin]
inhibition at 0.25 µg/mL (Phytophthora infestans [2]; [3]): 33%
inhibition at 1 µg/mL (Phytophthora infestans [2]; [3]): 46%

C=CC1(C)OC(=O)N(c2cc(Cl)cc(Cl)c2)C1=O (stereo not drawn) [vinclozolin]
inhibition at 16 µg/mL (Phytophthora infestans [2]; [3]): 0%
inhibition at 1 µg/mL (Botrytis cinerea; [4]): 21%

maneb
Observed activity (%) (Phytophthora infestans [2]): 6%
Observed activity (%) (Pyricularia oryzae): 32%

zinc ammoniate ethylenebis(dithiocarbamate) [metiram, reference compound]
Observed activity (%) (Pyricularia oryzae): 26%
